Our source for the IC50 values is patent US20250340565A1, “CD73 INHIBITOR COMPOUNDS” (AdoRx Therapeutics Limited, priority 2022, published 2025).

The target of test [1] is human (h)CD73 (amino acids Trp27-Lys547) (Homo sapiens, UniProt P21589). As to the kind of experiment: CD73 inhibition assay (Malachite Green phosphate detection). The class given is biochemical. The note with it: 250 pM hCD73, 12.5 μM AMP, 20 min pre-incubation, absorbance 620 nm. How it is done:
Compound inhibition of human (h)CD73 (amino acids Trp27-Lys547, R&D Systems 5795-EN-500) enzymatic activity was tested via the Malachite Green Phosphate Detection Kit (R&D DY996). Experiments were performed in 20 μL Tris buffer (25 mM Tris pH 7.5, 5 mM MgCl2, 0.002% Tween20), with 250 pM of hCD73. Test compounds of interest were prepared in a threefold serial dilution in DMSO and added to the assay to give the appropriate final concentration, with the assay DMSO concentration being 1%. Compounds were pre-incubated for 20 minutes with hCD73 in a 384 well clear plate (Greiner 781101), followed by the addition of adenosine monophosphate (AMP) to 12.5 μM. The enzymatic reaction was carried out for 20 min at room temperature. 5 μL of Malachite kit reagent A was added to stop the reaction (contains 3M H2SO4) and after 10 min, 5 μL of Malachite kit reagent B was added (Malachite Green). After 30 min, absorbance at 620 nm was read on a BMG Pherastar FSX.
Data were normalised to measurements in the absence of competing compound (0% inhibition) and in the presence of 10 μM control compound (100% inhibition).

In test [2] the target is CD73 activity in U138-MG cells (Homo sapiens (Human), UniProt P21589). As to the kind of experiment: U138-MG inhibition assay (inorganic phosphate from AMP, PiColorLock Gold). It is filed as cell-based. The settings on record: 100 μM AMP, 30 min pre-incubation, 1 hour at 37° C. How it is done: U138-MG cells from ATCC are cultured in DMEM (Gibco 31966) with 10% FBS. Cells are seeded into 96-well culture plates (5,000 cell/well) in 100 μL of media for 24 hr. Cells are washed twice with 200 μL of assay buffer (20 mM HEPES, pH 7.4; 137 mM NaCl; 5.4 mM KCl; 1.3 mM CaCl2; 4.2 mM NaHCO3; 1 mg/mL glucose) to remove residual inorganic phosphate. CD73 inhibitor is added to each well in 100 μl volume and preincubated for 30 mins at 37° C. An equal volume of AMP substrate (Sigma A1572) is added to each well at a final concentration of 100 μM and incubated at 37° C. for 1 hour. Control wells containing cells but lacking added AMP, define the assay signal equivalent to 100% inhibition of CD73 activity. Supernatant is removed for measurement of inorganic phosphate using the PiColorLock Gold kit (Abcam, ab 270004).
The IC50 values of test compounds are determined as the inflection point of the sigmoidal concentration response curve.

Test [3] concerns the target CD73 in whole blood (Homo sapiens (Human), UniProt P21589). As to the kind of experiment: Whole blood AMP Glo assay. The note with it: whole blood of healthy volunteers, 10 μM AMP, 30 min pre-incubation, 15 min at 37° C., levamisole 1.5 mM. It is filed as cell-based. As for the experimental part: Blood is drawn from healthy volunteers by venepuncture and anti-coagulated with Lithium Heparin (10 IU/mi). 150 μl of blood is added to U-bottom polypropylene 96-well assay plates pre-filled with 20 μl of compound dilutions prepared in RPMI also containing the Tissue Non-specific Alkaline Phosphatase inhibitor Levamisole (final assay concentration 1.5 mM). Control wells to define uninhibited CD73 contain DMSO in place of compound. Control wells to define complete stabilization of AMP attributable to CD73 contain LY3475070 (CAS: 2375815-63-5) at 30 μM final assay concentration.
Compounds are pre-incubated with whole blood at 37° C. for 30 minutes. Following this, AMP is added in a 30 μl volume for a final assay concentration of 10 μM, mixed, and the plates are incubated for 15 minutes at 37° C. Final DMSO concentration/well is 0.6% and final volume/well is 200 μL. After incubating with AMP, the plates are placed on ice and then centrifuged at 2000 g for 10 minutes at 4° C. Plasma is removed and then diluted 1:10 with pre-chilled HBSS (Ca2+& Mg2+free) and kept on ice.
The stabilized AMP concentration in diluted plasma is measured using AMP-Glo kit (Promega), in parallel with a standard curve of known AMP concentrations, with a final volume of 40 μl in white flat bottom half-well 96-well plates (Corning). Signal is measured by Luminescence. The IC50 values of test compounds are determined as the inflection point of the sigmoidal concentration response curve.

Chain of CD73 activity in U138-MG cells (P21589 27-574): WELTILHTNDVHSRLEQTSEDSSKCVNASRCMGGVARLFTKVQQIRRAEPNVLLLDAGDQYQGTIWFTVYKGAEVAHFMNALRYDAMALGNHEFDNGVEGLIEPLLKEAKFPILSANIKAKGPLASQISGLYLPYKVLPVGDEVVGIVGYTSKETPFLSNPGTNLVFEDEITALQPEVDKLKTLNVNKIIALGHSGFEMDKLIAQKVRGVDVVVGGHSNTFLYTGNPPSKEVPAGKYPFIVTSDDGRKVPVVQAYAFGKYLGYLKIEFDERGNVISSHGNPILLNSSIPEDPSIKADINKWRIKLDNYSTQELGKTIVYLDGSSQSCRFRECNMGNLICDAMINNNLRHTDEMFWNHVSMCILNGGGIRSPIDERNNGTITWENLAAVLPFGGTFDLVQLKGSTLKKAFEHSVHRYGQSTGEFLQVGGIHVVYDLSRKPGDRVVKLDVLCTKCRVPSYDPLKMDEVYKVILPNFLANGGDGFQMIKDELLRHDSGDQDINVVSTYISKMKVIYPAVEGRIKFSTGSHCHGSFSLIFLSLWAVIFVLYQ
Chain of CD73 in whole blood (P21589 27-574): as above

Regarding `O=c1[nH]cc(-c2cc3c(N4CCC(OCCN5CCCCC5)C4)ccnc3s2)c(=O)[nH]1` (centres unmarked) [Example 14, 5-[4-[3-[2-(1-Piperidyl)ethoxy]pyrrolidin-1-yl]thieno[2,3-b]pyridin-2-yl]-1H-pyrimidine-2,4-dione], the values for the IC50 in test [1], in test [2] and in test [3] were 62.8 nM, 177 nM and 549 nM, respectively.
Regarding `CC1(C)CN(c2ccnc3nn(-c4c[nH]c(=O)[nH]c4=O)cc23)CC1(F)F` [Example 30, 5-[4-(3,3-difluoro-4,4-dimethyl-pyrrolidin-1-yl)pyrazolo[3,4-b]pyridine-2-yl]-1H-pyrimidine-2,4-dione], the IC50 in test [1] worked out at 115 nM; in test [2] it was 12 nM; in test [3], 20 nM.
The matching figures for `CC1(C)CN(c2ncnc3sc(-c4c[nH]c(=O)[nH]c4=O)cc23)CC1(F)F` [Example 4, 5-[4-(3,3-Difluoro-4,4-dimethyl-pyrrolidin-1-yl)thieno[2,3-d]pyrimidin-6-yl]-1H-pyrimidine-2,4-dione]: 87.3 nM, 734 nM and 4010 nM.
For the compound `O=c1[nH]cc(-c2cc3c(N4CCC(CCO)C4)ncnc3s2)c(=O)[nH]1` (centres unmarked) [Example 1.1, 5-[4-[3-(2-Hydroxyethyl)pyrrolidin-1-yl]thieno[2,3-d]pyrimidin-6-yl]-1H-pyrimidine-2,4-dione], the 50% inhibitory concentration (IC50) in test [1] was determined as 677 nM; in test [2] it was 2310 nM; in test [3], 8760 nM.
The matching figures for `CC1(C)CN(c2ncc(F)c3nn(-c4c[nH]c(=O)[nH]c4=O)cc23)CC1(F)F` [Example 26, 5-[4-(3,3-Difluoro-4,4-dimethyl-pyrrolidin-1-yl)-7-fluoro-pyrazolo[4,3-c]pyridin-2-yl]-1H-pyrimidine-2,4-dione]: 55.6 nM, 2.9 nM and 16 nM.
With `O=c1[nH]cc(-c2cc3nccc(N4CCC(OCCN5CCCCC5)C4)c3s2)c(=O)[nH]1` (centres unmarked) [Example 16, 5-[7-[3-[2-(1-Piperidyl)ethoxy]pyrrolidin-1-yl]thieno[3,2-b]pyridin-2-yl]-1H-pyrimidine-2,4-dione], the figures for the IC50 in test [1], in test [2] and in test [3] were 297 nM, 1340 nM and 1550 nM, respectively.
Take `O=c1[nH]cc(-n2cc3c(N4CC(F)(F)C5(CCC5)C4)ncc(F)c3n2)c(=O)[nH]1` [Example 26.1, 5-[4-(8,8-difluoro-6-azaspiro[3.4]octan-6-yl)-7-fluoro-pyrazolo[4,3-c]pyridin-2-yl]-1H-pyrimidine-2,4-dione]: the IC50 in test [1] was 22.9 nM; in test [2] it was 5 nM; in test [3], 37 nM.
The matching figures for `O=c1[nH]cc(-c2cc3c(N4CCC(OCCO)C4)ncnc3s2)c(=O)[nH]1` (centres unmarked) [Example 1.3, 5-[4-[3-(2-Hydroxyethoxy)pyrrolidin-1-yl]thieno[2,3-d]pyrimidin-6-yl]-1H-pyrimidine-2,4-dione]: 489 nM, 717 nM and 3160 nM.
The matching figures for `O=c1[nH]cc(-c2cc3c(N4CCC(OCCN5CCC(F)(F)CC5)C4)ncnn3c2)c(=O)[nH]1` (centres unmarked) [Example 10.1, 5-[4-[3-[2-(4,4-Difluoro-1-piperidyl)ethoxy]pyrrolidin-1-yl]pyrrolo[2,1-f][1,2,4]triazin-6-yl]-1H-pyrimidine-2,4-dione]: 85.4 nM, 61.1 nM and 50.1 nM.
For `CN1CCOC(COC2CCN(c3ncnc4sc(-c5c[nH]c(=O)[nH]c5=O)cc34)C2)C1` (centres unmarked) [Example 4.4, 5-[4-[3-[(4-Methylmorpholin-2-yl)methoxy]pyrrolidine-1-yl]thieno[2,3-d]pyrimidin-6-yl]-1H-pyrimidine-2,4-dione] the same measures were 74.3 nM, 76.6 nM and 254 nM.
Regarding `O=c1[nH]cc(-c2cc3c(N4CCC(OCCN5CCCCC5)C4)ncnn3c2)c(=O)[nH]1` (centres unmarked) [Example 10, 5-[4-[3-[2-(1-Piperidyl)ethoxy]pyrrolidin-1-yl]pyrrolo[2,1-f][1,2,4]triazin-6-yl]pyrimidine-2,4-diol], the IC50 is 20.7 nM in test [1], 51.9 nM in test [2] and 29.6 nM in test [3].
The matching figures for `O=c1[nH]cc(-n2cc3c(N4CC(F)(F)C5(CCC5)C4)ncnc3n2)c(=O)[nH]1` [Example 13.2, 5-[4-(8,8-Difluoro-6-azaspiro[3.4]octan-6-yl)pyrazolo[3,4-d]pyrimidin-2-yl]-1H-pyrimidine-2,4-dione]: 60.7 nM, 2.1 nM and 1.13 nM.
Take `O=C(OC1CN(c2ncnc3oc(-c4c[nH]c(=O)[nH]c4=O)cc23)CC1(F)F)N1CC2CCC(C1)O2` (centres unmarked) [Example 22.1, [1-[6-(2,4-Dioxo-1H-pyrimidin-5-yl)furo[2,3-d]pyrimidin-4-yl]-4,4-difluoro-pyrrolidin-3-yl]8-oxa-3-azabicyclo[3.2.1]octane-3-carboxylate]: the IC50 turned out to be 152 nM in test [1], 61.9 nM in test [2] and 139 nM in test [3].
For `Cc1nc(N2CC(C)(C)C(F)(F)C2)c2cn(-c3c[nH]c(=O)[nH]c3=O)nc2n1` [Example 23, 5-[4-(3,3-Difluoro-4,4-dimethyl-pyrrolidin-1-yl)-6-methyl-pyrazolo[3,4-d]pyrimidin-2-yl]-1H-pyrimidine-2,4-dione] the same measures were 152 nM, 10.5 nM and 1.5 nM.
In the case of `O=c1[nH]cc(-c2cc3c(N4CC(F)(F)C5(CC5)C4)ncnc3o2)c(=O)[nH]1` [Example 19.3, 5-[4-(7,7-Difluoro-5-azaspiro[2.4]heptan-5-yl)furo[2,3-d]pyrimidin-6-yl]-1H-pyrimidine-2,4-dione], the half-maximal inhibitory concentration (IC50) in test [1] is 137 nM; in test [2] it was 28.3 nM; in test [3] it was 652 nM.
As for `COC1CN(c2ncc(Cl)n3nc(-c4c[nH]c(=O)[nH]c4=O)cc23)CC1(F)F` (centres unmarked) [Example 25.14, 5-[7-Chloro-4-(3,3-difluoro-4-methoxy-pyrrolidin-1-yl)pyrazolo[1,5-a]pyrazin-2-yl]-1H-pyrimidine-2,4-dione], the IC50 is 7 nM in test [2] and 20 nM in test [3].
In the case of `O=c1[nH]cc(-c2cc3c(N4CC(O)C(F)(F)C4)ncc(Cl)n3n2)c(=O)[nH]1` (centres unmarked) [Example 25.13, 5-[7-Chloro-4-(3,3-difluoro-4-hydroxy-pyrrolidin-1-yl)pyrazolo[1,5-a]pyrazin-2-yl]-1H-pyrimidine-2,4-dione], the concentration for half-maximal inhibition (IC50) in test [2] stood at 12 nM; in test [3] it was 5 nM.
For `CC1(C)CCN(c2ncc(F)n3nc(-c4c[nH]c(=O)[nH]c4=O)cc23)C1` [Example 25.17, 5-[4-(3,3-dimethylpyrrolidin-1-yl)-7-fluoro-pyrazolo[1,5-a]pyrazin-2-yl]-1H-pyrimidine-2,4-dione], the IC50 in test [2] stood at 39 nM; in test [3], 450 nM.
As to `CC1(C)CN(c2ncc(F)n3nc(-c4c[nH]c(=O)[nH]c4=O)cc23)CC1(F)F` [Example 25.10, 5-[4-(3,3-difluoro-4,4-dimethyl-pyrrolidin-1-yl)-7-fluoro-pyrazolo[1,5-a]pyrazin-2-yl]-1H-pyrimidine-2,4-dione], the IC50 was determined as 5 nM in test [2] and 56 nM in test [3].

What is called IC50 is the midpoint of a concentration-inhibition curve. Lower therefore signals inhibition by little substance.
